Source: US9371289B2, “Phenoxyethyl dihydro-1H-isoquinoline compounds” (Eli Lilly and Company, priority 2013, dated 2016)
Counter-ions that a name gives are not always drawn.

Columns and labels:
rat EP4 = target: T1, rat EP4 (Rattus norvegicus, UniProt P43114); experiment: In vitro rat EP4 functional antagonist activity (cAMP HTRF); format: cell-based; conditions: HEK293 cells expressing rat EP4; PGE2 at EC80; n=1; read-out: IC50 measured at rat EP4 (cAMP)
T1 construct: expressed in transfected cells
T1 sequence (P43114 whole entry): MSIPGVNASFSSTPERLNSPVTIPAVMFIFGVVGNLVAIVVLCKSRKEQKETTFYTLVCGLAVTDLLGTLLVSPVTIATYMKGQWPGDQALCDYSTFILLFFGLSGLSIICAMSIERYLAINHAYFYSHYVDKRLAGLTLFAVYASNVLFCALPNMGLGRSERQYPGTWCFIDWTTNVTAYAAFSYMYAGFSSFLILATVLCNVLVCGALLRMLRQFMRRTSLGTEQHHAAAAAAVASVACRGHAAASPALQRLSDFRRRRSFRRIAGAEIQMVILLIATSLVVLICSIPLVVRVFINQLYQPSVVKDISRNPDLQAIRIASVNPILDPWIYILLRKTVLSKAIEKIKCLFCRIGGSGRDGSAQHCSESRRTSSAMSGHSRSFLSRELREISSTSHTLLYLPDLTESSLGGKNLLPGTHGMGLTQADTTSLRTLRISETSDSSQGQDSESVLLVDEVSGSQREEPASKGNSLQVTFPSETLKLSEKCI
Method: Rat EP4 cDNA (Genebank Accession# NM_03276) is cloned into pcDNA 3.1 vector and subsequently transfected in HEK293 cells for receptor expression. Rat EP4 stable clone is scaled up and then frozen down as cell bank for future compounds screening. To test EP4 antagonist compounds in rEP4 cells, thaw the frozen cells and then resuspend cells in cAMP assay buffer. The cAMP buffer is made by HBSS without Phenol Red (Hyclone, SH30268) supplemented with 20 mM HEPES (Hyclone, SH30237), 0.1% BSA (Gibco, 15260) and 125 μM IBMX (Sigma, 15879) (see e.g., Murase, A., et al., Life Sciences, 82:226-232 (2008)). The cells are plated into 96-well half area flat-bottom polystyrene black plates (Costar 3694). Compounds are serial diluted with DMSO to give 10-point concentration response curves. Then diluted compounds are added into cAMP assay buffer which contains PGE2 (Cayman 14010, in a concentration predetermined to produce an EC80) at ratio of DMSO/buffer at 1/100. The cells are treated with compounds in the presence of PGE2 (EC80 concentration) for 30 minutes at room temperature. The cAMP levels generated from the cells are quantified by a cAMP HTRF assay kit (Cisbio 62AM4PEC). The plates are read on an EnVision plate reader using HTRF optimized protocol (PerkinElmer). IC50s are calculated using Graphpad Prism (v. 4) nonlinear regression, sigmoidal dose response curve fitting.

human EP4 [1] = target: T2, human EP4 (Homo sapiens, UniProt P35408); experiment: In vitro human EP4 functional antagonist activity (inhibition of PGE2-stimulated cAMP production, HTRF); format: cell-based; parameters: expressed in transfected cells; conditions: HEK293 cells stably expressing human EP4; PGE2 at EC80 (0.188 nM); read-out: IC50 measured at human EP4 (inhibition of PGE2-stimulated cAMP production)
T2 sequence (P35408 whole entry): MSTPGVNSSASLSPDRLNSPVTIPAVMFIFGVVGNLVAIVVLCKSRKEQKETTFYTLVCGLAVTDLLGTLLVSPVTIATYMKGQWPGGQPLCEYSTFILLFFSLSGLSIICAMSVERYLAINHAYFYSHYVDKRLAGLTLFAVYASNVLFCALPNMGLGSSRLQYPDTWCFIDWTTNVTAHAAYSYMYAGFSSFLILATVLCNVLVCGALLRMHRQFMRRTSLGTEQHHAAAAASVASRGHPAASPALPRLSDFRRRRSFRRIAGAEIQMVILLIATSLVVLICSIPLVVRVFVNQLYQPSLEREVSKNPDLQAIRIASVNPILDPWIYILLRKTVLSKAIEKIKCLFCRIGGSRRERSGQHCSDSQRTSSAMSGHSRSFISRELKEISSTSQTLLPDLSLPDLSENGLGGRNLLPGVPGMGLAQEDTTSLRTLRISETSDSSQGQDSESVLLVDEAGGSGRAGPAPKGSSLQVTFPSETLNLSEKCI
Method: Assays are conducted in recombinant HEK293 cells stably expressing human EP4 receptor. The cell lines are maintained by culturing in DMEM with high glucose and pyridoxine hydrochloride (Invitrogen) supplemented with 10% fetal bovine serum (FBS), 1 mM sodium pyruvate, 10 mM HEPES, 500 μg/mL geneticin and 2 mM L-glutamine. Confluent cultures are grown at 37° C. in an atmosphere containing 5% CO2. Cells are harvested using 0.25% Trypsin-EDTA, suspended in freeze media (FBS with 6% DMSO) at 10^7 cells/mL and aliquots are stored in liquid nitrogen. Just before assay, cells are thawed in DMEM, centrifuged, and resuspended in cAMP buffer.
The inhibition of PGE2-stimulated cAMP production by EP4 antagonists is measured using HTRF (Cisbio catalogue #62AM4PEB). An aliquot equivalent to 4000 cells is incubated with 50 μL cAMP assay buffer containing PGE2 in a concentration predetermined to produce an EC80 (0.188 nM PGE2 from Sigma, catalog # P5640-10 mg) and EP4 antagonists at room temperature for 20 minutes. cAMP assay buffer contains 500 mL HBSS, 0.1% BSA, 20 mM HEPES and 200 μM IBMX (Sigma I5879). […] The HTRF signal is detected using an EnVision plate reader (Perkin-Elmer) to calculate the ratio of fluorescence at 665 nm to that at 620 nm. […]

human EP1 = target: T3, human EP1 (Homo sapiens, UniProt P34995); experiment: In vitro binding to human EP1 ([3H]-PGE2 displacement, HEK293 membranes); conditions: [3H]-PGE2 binding, hEP1 membranes from recombinant HEK293 cells
T3 construct: expressed in transfected cells
T3 sequence (P34995 1-402): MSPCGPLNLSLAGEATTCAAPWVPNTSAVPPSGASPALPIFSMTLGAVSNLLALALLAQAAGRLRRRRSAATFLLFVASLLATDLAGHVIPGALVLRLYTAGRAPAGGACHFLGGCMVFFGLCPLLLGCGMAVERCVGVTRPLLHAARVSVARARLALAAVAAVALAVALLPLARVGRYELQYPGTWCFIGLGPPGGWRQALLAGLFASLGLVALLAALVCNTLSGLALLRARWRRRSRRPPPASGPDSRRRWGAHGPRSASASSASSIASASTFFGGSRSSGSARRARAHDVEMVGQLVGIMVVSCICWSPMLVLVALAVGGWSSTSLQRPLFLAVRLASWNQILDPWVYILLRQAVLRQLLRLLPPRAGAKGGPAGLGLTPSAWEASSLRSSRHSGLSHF
Method: (§1) hEP1 and hEP4 membranes are prepared from recombinant HEK293 cells stably expressing the human EP1 (Genbank accession number AY275470) or EP4 (Genbank accession number AY429109) receptors. hEP2 and hEP3 membranes are prepared from HEK293 cells transiently transfected with EP2 (Genbank accession number AY275471) or EP3 (isoform VI: Genbank accession number AY429108) receptor plasmids. Frozen cell pellets are homogenized in homogenization buffer using a Teflon/glass homogenizer. Membrane protein is aliquoted and quick frozen on dry ice prior to storage at −80° C. […]
(§2) Kd values for [3H]-PGE2 binding to each receptor are determined by saturation binding studies or homologous competition. […] Nonspecific binding is calculated by comparing binding in the presence and absence of 2 μM of PGE2. The membranes are harvested by filtration (TomTek harvester), washed 4 times with cold buffer (10 mM MES pH 6.0 with KOH, 10 mM MgCl2), dried in a 60° C. oven, and the radioactivity is quantified as counts per minute (CPM) using a TopCount® detector. Percent specific binding is calculated as the percent of the binding in the absence of any inhibitor, corrected for non-specific binding in the presence of 2 μM of PGE2. […]

human EP4 [2] = target: T2, human EP4; experiment: In vitro antagonist activity in human whole blood (reversal of PGE2 inhibition of LPS-induced TNFα production); format: cell-based; parameters: Blood is collected from normal volunteer donors; from tissue; host or cells: human whole blood from volunteer donors; conditions: LPS 10 μg/mL with 10 nM PGE2, geometric mean ± standard deviation, read-out: IC50 in human blood TNFα induction assay
Text: The inhibitory effects of PGE2 on LPS-induced TNFα production from macrophages/monocytes are believed to be mediated by EP4 receptors (See Murase, A., et al., Life Sciences, 82:226-232 (2008)). The ability of the compound of Example 1 to reverse the inhibitory effect of PGE2 on LPS-induced TNFα production in human whole blood is an indicia of functional activity.
Blood is collected from normal volunteer donors into sodium heparin vacutainer tubes. Donors have not taken NSAIDs or celecoxib within 48 hours or glucocorticoids within two weeks prior to the donation. All tubes/donor are pooled into 50 mL Falcon conical centrifuge tubes and 98 μL/well is distributed into 96-well tissue culture plates (Falcon 3072). […] TNFα levels in 2 μL plasma are quantified by a commercially available enzyme immunoassay (R&D Systems DY210), using Immulon 4 HBX plates (Thermo 3855) and 3,3′,5,5′ tetramethylbiphenyl-4,4′-diamine substrate (KPL 50-76-03). The plates are read at A450-A650 on a plate reader (Molecular Devices Versamax) using SOFTmaxPRO (v. 4.3.1) software. IC50s are calculated using Graphpad Prism (v. 4) nonlinear regression, with sigmoidal dose response curve fitting. Results are expressed as the geometric mean±standard deviation; n=number of independent determinations.

human EP4 [3] = target: T2, human EP4; experiment: In vitro binding to human EP4 ([3H]-PGE2 displacement, HEK293 membranes); parameters: expressed in transfected cells; conditions: [3H]-PGE2 binding, hEP4 membranes from recombinant HEK293 cells
Method: as §1, §2

human EP2 = target: T4, human EP2 (Homo sapiens, UniProt P43116); experiment: In vitro binding to human EP2 ([3H]-PGE2 displacement, HEK293 membranes); conditions: [3H]-PGE2 binding, hEP2 membranes from transiently transfected HEK293 cells
T4 construct: expressed in transfected cells; host or cells: HEK293 (transient), membranes
T4 sequence (P43116 whole entry): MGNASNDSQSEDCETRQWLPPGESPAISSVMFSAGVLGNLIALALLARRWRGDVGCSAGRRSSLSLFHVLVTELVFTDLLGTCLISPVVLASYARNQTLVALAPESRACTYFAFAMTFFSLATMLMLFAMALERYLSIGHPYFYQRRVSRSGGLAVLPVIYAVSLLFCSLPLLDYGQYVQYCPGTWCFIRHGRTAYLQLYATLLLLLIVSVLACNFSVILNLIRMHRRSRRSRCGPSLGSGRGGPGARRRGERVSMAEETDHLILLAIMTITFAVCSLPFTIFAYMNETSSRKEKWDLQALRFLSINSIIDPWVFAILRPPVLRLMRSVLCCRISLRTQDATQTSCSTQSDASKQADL
Method: as §1, §2

human EP3 = target: T5, human EP3 (Homo sapiens, UniProt P43115); experiment: In vitro binding to human EP3 ([3H]-PGE2 displacement, HEK293 membranes); conditions: [3H]-PGE2 binding, hEP3 (isoform VI) membranes from transiently transfected HEK293 cells
T5 construct: expressed in transfected cells; host or cells: HEK293 (transient), membranes
T5 sequence (P43115 1-374 isoform P43115-4): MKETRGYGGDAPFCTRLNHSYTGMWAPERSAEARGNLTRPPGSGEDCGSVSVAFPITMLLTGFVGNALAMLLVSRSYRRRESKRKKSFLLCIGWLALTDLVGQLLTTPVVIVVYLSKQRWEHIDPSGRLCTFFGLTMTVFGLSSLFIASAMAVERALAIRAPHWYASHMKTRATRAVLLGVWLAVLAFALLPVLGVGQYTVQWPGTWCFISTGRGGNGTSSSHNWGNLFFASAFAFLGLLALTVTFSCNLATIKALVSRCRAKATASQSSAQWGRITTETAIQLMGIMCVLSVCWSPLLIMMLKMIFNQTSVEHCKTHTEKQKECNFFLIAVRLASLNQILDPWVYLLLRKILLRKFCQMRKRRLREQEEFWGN
Method: as §1, §2

Row | IC50 (rat EP4) [nM] | IC50 (human EP4 [1]) [nM] | Ki (human EP1) [nM] | IC50 (human EP4 [2]) [nM] | Ki (human EP4 [3]) [nM] | Ki (human EP2) [nM] | Ki (human EP3) [nM] | Structure (SMILES)
1 | 6.7 | 0.45 ± 0.256 | 4650 | 61 ± 55 | 0.38 ± 0.142 | 331 ± 72 | > 14600 | C[C@H](NC(=O)[C@H]1Cc2ccccc2CN1CCOc1ccc(F)cc1)c1ccc(C(=O)O)cc1 [Example 2, 4-[(1S)-1-[[(3R)-2-(2-(4-fluorophenoxy)ethyl)-3,4-dihydro-1H-isoquinoline-3-carbonyl]amino]ethyl]benzoic acid hydrochloride]
2 | 2 | 0.752 ± 0.538 | 7920 ± 5810 | 39 ± 21 | 0.403 ± 0.247 | 1320 ± 1780 | > 14800 | C[C@H](NC(=O)[C@H]1Cc2ccccc2CN1CCOc1ccccc1)c1ccc(C(=O)O)cc1 [Example 1, 4-[(1S)-1-[[(3R)-2-(2-phenoxyethyl)-3,4-dihydro-1H-isoquinoline-3-carbonyl]amino]ethyl]benzoic acid]
